Drawing on PubChem BioAssay (NCI), this text covers TGI for six compounds.

Among the test systems are TK-10 renal; HOP-92 NSCLC; UACC-257 melanoma; OVCAR-4 ovarian; MDA-MB-435; OVCAR-3 ovarian; IGROV1 ovarian; SK-OV-3 ovarian; A549 NSCLC; NCI-H226 lung; U251 CNS; CAKI-1 renal; SF-268 CNS; HL-60(TB) leukemia; BT-549 breast; K-562 leukemia; SF-295 CNS; HCC-2998 colon; MOLT-4 leukemia; SNB-75 CNS.
Common to all, as to assay: inhibition of tumour cell growth, NCI panel, 48 h

Structures are written as SMILES.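 Step 1: Grow cells in 96-well plates. Step 2: Expose to compound for 48 hours at 5 concentrations. Step 3: Interpolate endpoints linearly; if unreached, use highest concentration. TGI marks complete inhibition of growth.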

Consider `C=CCN1C(=O)/C(=C/c2ccc(OC)cc2)NC1=S`, for which the TGI was greater than 100 µM in the test with TK-10 renal; greater than 100 µM in the test with HOP-92 NSCLC; 78.3 µM with UACC-257 melanoma; greater than 100 µM in the test on OVCAR-4 ovarian; greater than 100 µM in the test with MDA-MB-435; greater than 100 µM with OVCAR-3 ovarian. For the same compound, the TGI in the test with IGROV1 ovarian, in the test on SK-OV-3 ovarian, with A549 NSCLC, in the test on NCI-H226 lung, with U251 CNS and in the test with CAKI-1 renal was greater than 100 µM throughout. The TGI with SF-268 CNS was greater than 100 µM; with HL-60(TB) leukemia, 3.81 µM; with BT-549 breast, greater than 100 µM; with K-562 leukemia it was greater than 100 µM; in the test with SF-295 CNS, greater than 100 µM; in the test with HCC-2998 colon it was greater than 100 µM. For the same compound, the results for the TGI in the test with MOLT-4 leukemia and in the test with SNB-75 CNS were 25.6 µM and greater than 100 µM, respectively.
As for `Oc1cc(-c2ccccc2)cn2c1nc1ccccc12`, the TGI with TK-10 renal, with HOP-92 NSCLC, in the test on UACC-257 melanoma, in the test on OVCAR-4 ovarian, with MDA-MB-435 and with OVCAR-3 ovarian was greater than 100 µM in each case. The TGI in the test on IGROV1 ovarian is greater than 38.8 µM; with SK-OV-3 ovarian, 6.09 µM; in the test with A549 NSCLC, greater than 100 µM; with NCI-H226 lung it was greater than 100 µM; in the test on U251 CNS, greater than 100 µM; in the test with CAKI-1 renal, greater than 100 µM. In addition, the TGI was greater than 100 µM in the test on SF-268 CNS; 9.4 µM with HL-60(TB) leukemia; greater than 100 µM with BT-549 breast; greater than 100 µM with K-562 leukemia; greater than 46.1 µM in the test on SF-295 CNS; greater than 100 µM with HCC-2998 colon. Moreover, the TGI with MOLT-4 leukemia and in the test with SNB-75 CNS was greater than 100 µM each time.
`CCOP(=O)(CCCC(O)CNc1cc(Cl)nc(N)n1)OCC` (stereo not given): the TGI in the test with TK-10 renal, in the test with HOP-92 NSCLC, with UACC-257 melanoma, in the test on OVCAR-4 ovarian, with MDA-MB-435 and in the test with OVCAR-3 ovarian was greater than 100 µM throughout. The TGI in the test on IGROV1 ovarian, in the test on SK-OV-3 ovarian, in the test on A549 NSCLC, in the test with NCI-H226 lung, with U251 CNS and in the test with CAKI-1 renal was greater than 100 µM throughout. The TGI with SF-268 CNS, in the test on HL-60(TB) leukemia, in the test on BT-549 breast, with K-562 leukemia, with SF-295 CNS and in the test with HCC-2998 colon was greater than 100 µM each time. Moreover, the TGI in the test on MOLT-4 leukemia and in the test on SNB-75 CNS was greater than 100 µM in each case.
As for `Cc1ccc(N=Nc2ccc(O)c(CN(C)C)c2)cc1C`, the TGI is 43.3 µM with TK-10 renal; greater than 100 µM in the test with HOP-92 NSCLC; 58.9 µM in the test on UACC-257 melanoma; greater than 100 µM in the test on OVCAR-4 ovarian; 40.4 µM with MDA-MB-435; greater than 100 µM with OVCAR-3 ovarian. Further, the TGI was 84.3 µM in the test with IGROV1 ovarian; greater than 100 µM with SK-OV-3 ovarian; greater than 100 µM in the test on A549 NSCLC; greater than 100 µM in the test with NCI-H226 lung; greater than 100 µM in the test on U251 CNS; greater than 100 µM with CAKI-1 renal. Moreover, the TGI in the test with SF-268 CNS is greater than 100 µM; with HL-60(TB) leukemia, 26.1 µM; in the test on BT-549 breast, greater than 100 µM; with K-562 leukemia, 43.5 µM; in the test with SF-295 CNS, greater than 100 µM; in the test on HCC-2998 colon, 32.7 µM. In addition, the figures for the TGI in the test with MOLT-4 leukemia and in the test on SNB-75 CNS were 61.5 µM and greater than 100 µM, respectively.
As for `COc1ccc(/C=C/C(=O)/C=C/c2ccc(OC)cc2)cc1`, the TGI is greater than 100 µM in the test on TK-10 renal; 80.6 µM in the test with HOP-92 NSCLC; 41.3 µM in the test on UACC-257 melanoma; greater than 100 µM in the test on OVCAR-4 ovarian; 29.6 µM in the test with MDA-MB-435; greater than 100 µM in the test with OVCAR-3 ovarian. Further, the TGI in the test with IGROV1 ovarian was greater than 100 µM; in the test with SK-OV-3 ovarian, greater than 100 µM; in the test with A549 NSCLC, greater than 100 µM; in the test with NCI-H226 lung, 98.3 µM; with U251 CNS it was 68.6 µM; in the test with CAKI-1 renal, greater than 100 µM. Further, the TGI in the test on SF-268 CNS was greater than 100 µM; in the test on HL-60(TB) leukemia, 53.7 µM; in the test on BT-549 breast, greater than 100 µM; in the test with K-562 leukemia, greater than 100 µM; with SF-295 CNS it was greater than 100 µM; with HCC-2998 colon, 15.7 µM. The TGI with MOLT-4 leukemia and in the test with SNB-75 CNS was greater than 100 µM in each case.
For the compound `COc1cc(/C=C2\C[C@H]3[C@@H]4CC=C5C=C(N6CCCC6)CC[C@]5(C)[C@H]4CC[C@]3(C)C2=O)cc(OC)c1OC`, the TGI in the test with TK-10 renal is 21.4 µM; in the test with HOP-92 NSCLC it was 5.67 µM; in the test on UACC-257 melanoma, 9.48 µM; with OVCAR-4 ovarian, 22.5 µM; with MDA-MB-435, 5.83 µM; in the test on OVCAR-3 ovarian it was 4.07 µM. Further, the TGI in the test on IGROV1 ovarian was 3.83 µM; in the test on SK-OV-3 ovarian it was 22.1 µM; with A549 NSCLC it was greater than 51.7 µM; in the test on NCI-H226 lung, 34.3 µM; in the test with U251 CNS, 4.7 µM; with CAKI-1 renal, 7.61 µM. Moreover, the TGI in the test with SF-268 CNS was 5.05 µM; in the test on HL-60(TB) leukemia, 17.8 µM; in the test with BT-549 breast, 5.82 µM; in the test on K-562 leukemia, greater than 100 µM; with SF-295 CNS it was 7.04 µM; in the test with HCC-2998 colon it was 3.57 µM. Further, the TGI is greater than 28 µM with MOLT-4 leukemia and 15.9 µM in the test with SNB-75 CNS.
